ChEMBL document CHEMBL1201862, “PubChem BioAssay data set” (2004)
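Results reflect a 48-hour exposure of cells in 96-well plates to compound at five concentrations. The concentration for 50% growth inhibition is given as GI50.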 Active and inactive are the calls of the source. Rule as the data show it: active = GI50 up to about 1.1 µM and inactive = higher.

What was measured:
Assay in all cases: NCI anticancer screen, dose series, 48 h
[1] = tested on: SF-539
[2] = tested on: TK-10
[3] = tested on: RXF 393
[4] = tested on: KM12
[5] = tested on: SK-OV-3
[6] = tested on: IGROV-1
[7] = tested on: MOLT-4
[8] = tested on: SN12C
[9] = tested on: OVCAR-4
[10] = tested on: LOX IMVI
[11] = tested on: NCI-H23
[12] = tested on: K562
[13] = tested on: MDA-N
[14] = tested on: BT-549
[15] = tested on: OVCAR-5
[16] = tested on: UACC-62
[17] = tested on: EKVX
[18] = tested on: Malme-3M
[19] = tested on: HL-60
[20] = tested on: NCI-H226

Measured: GI50

N#Cc1c(N2CCN(c3ccc([N+](=O)[O-])cc3)CC2)[n+]([O-])c2ccccc2[n+]1[O-]
inactive: [1] 38.3 µM | [2] > 100 µM | [3] > 100 µM | [4] > 100 µM | [5] > 100 µM | [6] 17.4 µM | [7] 1.93 µM | [8] > 100 µM | [9] > 100 µM | [10] 32.4 µM | [11] > 100 µM | [12] 6.78 µM | [13] > 100 µM | [14] > 100 µM | [15] > 100 µM | [16] > 100 µM | [17] > 100 µM | [18] > 100 µM

O=C(Cn1nnc(-c2ccccc2)n1)N/N=C/c1cn(Cc2ccc(Cl)cc2Cl)c2ccccc12
inactive: [1] > 100 µM | [2] > 100 µM | [4] > 100 µM | [5] > 100 µM | [6] > 100 µM | [7] > 100 µM | [8] > 100 µM | [9] > 100 µM | [19] 39.6 µM | [10] > 100 µM | [11] > 100 µM | [12] > 100 µM | [13] > 100 µM | [14] > 100 µM | [15] > 100 µM | [16] > 100 µM | [17] 44.5 µM

CC(C)(C)NC(=O)/C(=C\Sc1ccccc1)c1ccc2c(c1)OCO2
inactive: [1] 35.3 µM | [2] 44.8 µM | [4] 32.4 µM | [5] 52.5 µM | [6] 29.2 µM | [7] 21.9 µM | [8] 26.7 µM | [9] 51.3 µM | [19] 18.7 µM | [10] 16.1 µM | [11] 35.3 µM | [12] 43.6 µM | [13] 22.8 µM | [14] 75.9 µM | [15] 30.6 µM | [16] 19.8 µM | [17] 28.4 µM

CCOC(=O)c1[nH]c2cccc3c2c1CC[C@H](NC(=O)C(F)(F)F)C3=O
active: [17] < 0.01 µM
inactive: [1] 38.1 µM | [2] 46 µM | [4] 61.8 µM | [6] 75.5 µM | [7] > 100 µM | [8] 40.3 µM | [9] 24.7 µM | [19] > 100 µM | [10] 78 µM | [20] > 100 µM | [11] 70.6 µM | [12] 45.8 µM | [13] 34.5 µM | [14] 40.4 µM | [15] > 100 µM | [18] > 100 µM

Cc1ccc(NC(=O)NC(=O)c2ccc([N+](=O)[O-])cc2[N+](=O)[O-])cc1Oc1ncc(Cl)cn1
inactive: [2] 14.4 µM | [6] 1.13 µM | [9] 11.4 µM | [14] 17.9 µM | [17] > 10 µM
active: [1] 0.287 µM | [3] 0.175 µM | [4] 0.252 µM | [5] 0.908 µM | [7] 0.362 µM | [8] 0.578 µM | [19] 0.218 µM | [10] 0.637 µM | [20] 0.449 µM | [11] 0.564 µM | [12] 0.275 µM | [15] 0.828 µM | [16] 0.229 µM | [18] 0.0925 µM

Nc1n[n+]([O-])c2cnccc2[n+]1[O-]
inactive: [1] 47.9 µM | [2] > 100 µM | [4] 58.7 µM | [5] > 100 µM | [6] 37.2 µM | [7] 51.8 µM | [8] 44.2 µM | [9] 56.2 µM | [19] 13.6 µM | [10] 52.2 µM | [20] > 100 µM | [11] 42.2 µM | [13] 20.7 µM | [14] 45.2 µM | [15] 52 µM | [16] 30.1 µM | [18] > 10 µM

CO[C@H]1C=C[C@]23c4cc5c(cc4CN(CC2O)[C@@H]3C1)OCO5 (stereo partly specified)
inactive: [1] 2.59 µM | [2] 3.18 µM | [4] 3.09 µM | [6] 1.37 µM | [8] 3.3 µM | [9] 1.78 µM | [10] 2.18 µM | [20] 6.9 µM | [11] 4.49 µM | [12] 2.04 µM | [13] 3.93 µM | [14] 2.36 µM | [15] 5.47 µM | [16] 2.18 µM | [17] 3.57 µM | [18] 2.15 µM
active: [5] 0.388 µM | [7] 0.873 µM | [19] 0.179 µM

N#Cc1ncn(-c2ccccc2)c1N
inactive: [1] > 100 µM | [2] > 100 µM | [4] > 100 µM | [5] > 100 µM | [6] > 100 µM | [7] > 100 µM | [8] > 100 µM | [9] > 100 µM | [19] > 100 µM | [10] > 100 µM | [20] > 100 µM | [11] > 100 µM | [12] > 100 µM | [13] > 100 µM | [14] > 100 µM | [15] > 100 µM | [16] > 100 µM | [17] > 100 µM | [18] > 100 µM

O=C1C=C2CC[C@H]3[C@@H]4CC[C@H](OC(=O)c5cccc6cc7ccccc7nc56)[C@H]4CC[C@@H]3[C@H]2CC1
inactive: [1] > 100 µM | [2] > 100 µM | [4] > 100 µM | [5] > 100 µM | [6] > 100 µM | [7] 54.3 µM | [8] > 100 µM | [9] > 100 µM | [19] > 100 µM | [10] 15.9 µM | [20] > 100 µM | [11] > 100 µM | [12] 40.1 µM | [13] > 100 µM | [14] > 100 µM | [15] > 100 µM | [16] > 100 µM | [17] 63.1 µM | [18] > 100 µM

Cc1nc2c(=S)[nH]ncc2[nH]1
inactive: [1] > 100 µM | [2] > 100 µM | [4] > 100 µM | [5] > 100 µM | [6] > 100 µM | [7] > 10 µM | [8] > 100 µM | [9] > 100 µM | [19] > 100 µM | [10] > 100 µM | [20] > 100 µM | [11] > 100 µM | [12] > 100 µM | [13] > 100 µM | [14] > 100 µM | [15] > 100 µM | [16] > 100 µM | [17] > 100 µM | [18] 94.8 µM

Cc1cc(C)cc(Nc2nnc3n2S(=O)(=O)c2cc(C)c(Cl)cc2S3)c1
inactive: [1] 2.89 µM | [2] 10.7 µM | [3] 3.03 µM | [4] 8.38 µM | [5] 14.3 µM | [6] 5.43 µM | [7] 3.08 µM | [8] 5.61 µM | [9] 8.69 µM | [19] 4.17 µM | [10] 3.44 µM | [20] 3.07 µM | [11] 2.96 µM | [12] 3.01 µM | [14] 4.22 µM | [15] 5.35 µM | [16] 5.65 µM | [17] 11.2 µM | [18] 1.87 µM

CC(C)(C)OC(=O)C1/C(=C/CBr)CN1C(=O)OC(C)(C)C (stereo unspecified)
inactive: [1] 18.5 µM | [2] 16.9 µM | [5] 21.1 µM | [6] 5.5 µM | [7] 6.56 µM | [8] 12.6 µM | [9] 2.86 µM | [19] 2.66 µM | [10] 3.24 µM | [11] 10.5 µM | [12] 2.73 µM | [13] 14.7 µM | [14] 16.7 µM | [15] 18.7 µM | [16] 15.3 µM | [17] 18 µM | [18] 18 µM

CC(=O)OC1C2CCC3C(C)(O)C4CC(O)C(C)(C)C4(O)C(O)CC13CC2(C)O (stereo unspecified)
inactive: [1] > 100 µM | [2] > 100 µM | [4] > 100 µM | [5] > 100 µM | [6] > 100 µM | [8] > 100 µM | [9] > 100 µM | [19] > 100 µM | [10] > 100 µM | [20] > 100 µM | [11] > 100 µM | [12] > 100 µM | [13] > 100 µM | [14] > 100 µM | [15] > 100 µM | [16] > 100 µM | [17] > 100 µM

CCCCc1ccc(Nc2nc(N)c3[nH]cnc3n2)cc1
inactive: [1] 18.8 µM | [2] 16.4 µM | [4] 18.3 µM | [5] 20.8 µM | [6] 12.1 µM | [8] 13.9 µM | [9] 24.5 µM | [19] 18.7 µM | [10] 18.4 µM | [20] 8.73 µM | [11] 17.1 µM | [12] 28.1 µM | [13] 16.9 µM | [14] 21.5 µM | [15] 30.5 µM | [16] 17.2 µM | [17] 19.6 µM | [18] 22.2 µM
active: [7] 0.925 µM

CC1CCCC2=C1C(c1ccc(Cl)cc1)n1c(s/c(=C\c3ccc(Cl)cc3)c1=O)=N2 (stereo unspecified)
inactive: [2] > 100 µM | [3] > 100 µM | [4] > 100 µM | [5] > 100 µM | [6] > 100 µM | [8] > 100 µM | [10] > 100 µM | [12] > 100 µM | [13] > 100 µM | [14] 22.1 µM | [15] > 100 µM | [16] > 100 µM | [17] > 100 µM
